Series [1] has as its system PLA2 activity of D. russelii venom. Briefly: Miniaturised 384-well colorimetric sPLA2 assay, D. russelii venom. The note with it: for EC50: 2-fold dilutions 10 µM to 5 pM, n = 4; for venom PLA2 activity in presence of compound: interleaved validation plates, 10 µM compound; for venom PLA2 activity in presence of compound / Percent inhibition (PLA2) Original / Percent inhibition (PLA2) Rescreen: 20 ng/well D. russelii venom; for Percent inhibition (PLA2) Original: primary screen, 10 µM drug, single point, relative to varespladib (100%) and DMSO (0%); for mean inhibition between screen and rescreen / Percent inhibition (PLA2) Rescreen: 10 µM; for mean inhibition between screen and rescreen: D. russelii venom; for Percentage of Inhibition: Table S1, strong hits, value used for ligand efficiency metrics; for Percent inhibition (PLA2) Rescreen: rescreen of library hits, average of rescreen (2 ≤ n ≤ 4). It counts as biochemical, Daboia russelii. How it is done:
Once hydrolysed, this substrate yields a free thiol group that interacts with 5,5′-dithio-bis-(2-nitrobenzoic acid) (DTNB), which is then converted into 2-nitro-5-thiobenzoic acid, causing a change in colour which is measurable at 405 nm. This conversion is measured kinetically and occurs at a linear rate until the substrate is exhausted, at which point the absorbance plateaus. Appropriate PLA2 concentrations are determined to fit within the linear range of the assay and a bee venom positive control is included with the kit. The assay is designed for 96-well plates and is quite costly at GBP£440/96 tests at the time of writing. We wanted to adapt and miniaturise this methodology for high-throughput screening of PLA2 activity and inhibition in 384-well plates to decrease cost and increase output, without compromising assay robustness.
Prior to conducting drug library screens, it was important to assess whether any drift or edge effects occurred in our setup. […] These consisted of full rows of these compounds in a repeating pattern (e.g., DMSO was in rows A, E, I, M, buffer was in rows B, F, J, N, etc.) on a 384-well plate. The assay was conducted as previously described using 20 ng/well of D. russelii venom across the plate. This was repeated three times on different days. To determine PLA2 activity under each of these conditions, the slope of each reaction was calculated by dividing the difference in absorbance at 405 nm between the first two time points in the linear range (tn–t0) by time (in min) where tn was 2 min 41 s in this case. These values were then inputted into the following equation: A µmol/min×mL=slope×0.045/4.6×0.01 where A represents venom activity, 0.045 is a factor representing the total volume of the assay (45 µL), 4.6 is the extinction coefficient of DTNB in 384-well plates, and 0.01 represents the sample size of 10 µL. This activity is then converted into specific activity by dividing the overall activity to the amount of venom in the reaction in micrograms.
Once in house this library was formatted as 11 × 384-well stock plates containing drugs at a concentration of 1 mM in DMSO. […] Assay-ready plates (ARPs) were made by transferring 0.5 µL from each well of the stock plates onto new 384-well plates, so that the layout of the ARP matched that of the stock plate. Venom was added at 10 µL per well (20 ng venom/well) across the plate, except for column 24 which received 10 µL of assay buffer. These latter wells containing control drugs and assay buffer served as the blank. The plates were incubated for 25 min at 37°C, then left to reach room temperature for 5 min. […] The data were analysed as above by calculating the slopes of all reactions on the plate. The average of the slopes of the blanks was then subtracted from each of these values, and specific activity calculated as described and expressed as µmol/min/mL/µg of venom.
These experiments were conducted and analysed as above, with n = 4 repeats per compound.

Series [2] has the same test system. The series is described as above. It counts as biochemical, Daboia russelii. To be noted: re-sourced drugs, 10 µM, 30 ng venom, varespladib normalised as 100%.
Series [3] deals with PLA2 activity of N. naja venom. In words: Miniaturised 384-well colorimetric sPLA2 assay, N. naja venom. To be noted: re-sourced drugs, 10 µM, 40 ng venom, varespladib normalised as 100%.
Method: (§1) The final concentrations of DTNB and that of the substrate in the assay were 0.44 and 0.88 mM, respectively.
(§2) Then, 10 µL of snake venom at a concentration appropriate for the venom being screened was added to the plates using the VIAFLO384 and the plates were sealed with adhesive plate seals (Greiner BioOne), spun down and incubated for 25 min at 37°C. To prevent the degradation of any potential photolabile compounds, the plates were wrapped in aluminium foil prior to the incubation step. The plates were then taken out of the incubator and left to acclimatise at room temperature for 5 min.
(§3) To determine percentage inhibition relative to the positive and negative controls we applied the following formula: % inhibition= A− µ pos/µ neg− µ pos×100 where A represents specific activity as determined for each sample, and µ (pos) and µ (neg) represent the means of the specific activity in the positive and negative controls, respectively.
The subject of series [4] is PLA2 activity of C. atrox venom. Briefly: Miniaturised 384-well colorimetric sPLA2 assay, C. atrox venom. To be noted: re-sourced drugs, 10 µM, 30 ng venom, varespladib normalised as 100%.
Method: as §1, §2, §3
Series [5] has as its system PLA2 activity of B. arietans venom. Briefly: Miniaturised 384-well colorimetric sPLA2 assay, B. arietans venom. To be noted: re-sourced drugs, 10 µM, 40 ng venom, varespladib normalised as 100%.
Method: as §1, §2, §3
For series [6], the system named is PLA2 activity of N. nigricollis venom. Briefly: Miniaturised 384-well colorimetric sPLA2 assay, N. nigricollis venom. To be noted: for % inhibition: N. nigricollis: re-sourced drugs, 10 µM, 5 ng venom, varespladib normalised as 100%.
Method: as §1, §2, §3
(§4) Drugs were plated as before, starting at 10 µM followed by 2-fold dilutions down to 5 pM, with each dilution series plated in quadruplicate. The data were analysed and expressed as described above and the percentage PLA2 inhibition values were used to generate EC50s in Graphpad Prism 9 using a nonlinear regression to fit the dose-response inhibition curve.
Series [7] relates to PLA2 activity of C. durissus terrificus venom. In words: Miniaturised 384-well colorimetric sPLA2 assay, C. durissus terrificus venom. To be noted: for % inhibition: C. durissus terrificus: re-sourced drugs, 10 µM, 12.5 ng venom, varespladib normalised as 100%; for EC50: read-out: EC50 (nM) C. durissus terrificus, 2-fold dilutions 10 µM to 5 pM, n = 4.
Method: as §1, §2, §3, §4
Details of series [8]: method as in Cerdá et al., 2003. The note with it: ref Cerdá et al., 2003; cited from earlier work.
Series [9] relates to PLA2 activity of C. durissus terrificus venom. Further details: method as in Cotrim et al., 2011. The note with it: ref Cotrim et al., 2011; cited from earlier work.
The test system of series [10] is secreted PLA2. Further details: method as in Yu et al., 1997. The note with it: ref Yu et al., 1997; cited from earlier work.
Details of series [11]: method as in Liu et al., 1987; Coutinho et al., 2000. To be noted: dose of up to 20 mg/day, trialled in the 1970s in China; ref Liu et al., 1987; Coutinho et al., 2000; cited from earlier work.
On the set-up of series [12]: method as in Beaudoin, 1985. To be noted: ref Beaudoin, 1985; cited from earlier work.
The test system of series [13] is non-small cell lung carcinoma cells. Also noted: method as in Wang et al., 2018. To be noted: ref Wang et al., 2018; cited from earlier work.
The mark [14] stands for this setting: read-out: EC50 (nM) D. russelii.

Counter-ions that a name gives are not always drawn. Like-named read-outs stand apart in the source and are kept apart here. Some results are limits rather than exact numbers.

In general, EC50 refers to the concentration giving half of the maximal effect.

In the case of `CCc1c(C(=O)C(N)=O)c2c(OCC(=O)O)cccc2n1Cc1ccccc1` [Varespladib], the “inhibition of venom PLA2 activity (reaction rate)” value is reported as “inhibited venom activity to baseline readings” in [1] (10 µM varespladib, viper venom, Figure 1B) and “inhibited venom activity to baseline readings” in series [6] (10 µM varespladib, elapid venom, Figure 1B). In addition, the EC50 in series [1] (text value in pM, read-out: EC50 against D. russelii venom) came to 500 pM; in [7], 5.5 nM. Moreover, the “venom PLA2 activity in presence of compound” value in series [1] is “dropped sharply”. For the same molecule, in series [1], the “Percent inhibition (PLA2) Original” value is > 99%. In [2], the “% inhibition: D. russelii” value is “reducing readings to control levels”. In [3], the “% inhibition: N naja” value was “reducing readings to control levels”. Also, in series [4], the “% inhibition: C. atrox” value is given as “reducing readings to control levels”. The “% inhibition: B. arietans” value in [5] was “reducing readings to control levels”. Further, the “% inhibition: N. nigricollis” value in series [6] is reported as “reducing readings to control levels”. Besides, the “% inhibition: C. durissus terrificus” value in series [7] was “reducing readings to control levels”.

As to `CC(=O)Oc1cc2c(s1)CCN(C(C(=O)C1CC1)c1ccccc1F)C2` (stereo not drawn) [Prasugrel (hydrochloride), prasugrel hydrochloride], in series [1], the “mean inhibition between screen and rescreen” value came to 83.9%; the “Percentage of Inhibition” value amounted to 89.92. For the same molecule, in [2], the “% inhibition: D. russelii” value is “above 72%”.

For `CC(=O)O.Cc1cc2c(C(C)C)c(O)c(O)c(C=O)c2c(O)c1-c1c(C)cc2c(C(C)C)c(O)c(O)c(C=O)c2c1O`, the “mean inhibition between screen and rescreen” value in series [1] is listed as 89.2%.

With `O=C(/C=C/c1ccc(O)c(O)c1/C=C/c1ccc(O)c(O)c1)O[C@H](Cc1ccc(O)c(O)c1)C(=O)O` [Salvianolic acid A], in series [1], the “Percent inhibition (PLA2) Rescreen” value is on record as “failed to reproducibly inhibit”.

Take `CC1(C)C2CCC1(C)C(O)C2` (racemic) [DL-Borneol]: the “mean inhibition between screen and rescreen” value in series [1] is on record as 95.1%. For the same molecule, the “% inhibition: D. russelii” value in series [2] is on record as “did not re-test as a hit”. Moreover, the “% inhibition: N naja” value in series [3] is given as “did not re-test as a hit”. Also, the “% inhibition: C. atrox” value in series [4] is given as “did not re-test as a hit”. Moreover, the “% inhibition: B. arietans” value in [5] is on record as “did not re-test as a hit”. Also, the “% inhibition: N. nigricollis” value in [6] is listed as “did not re-test as a hit”. Moreover, the “% inhibition: C. durissus terrificus” value in [7] is “did not re-test as a hit”.

`O=C1O[C@H]2[C@@H]3OC(=O)c4cc(O)c(O)c(O)c4-c4c(O)c(O)c5oc(=O)c6c(c(O)c(O)c7oc(=O)c4c5c76)-c4c(cc(O)c(O)c4O)C(=O)OC[C@H]3OC(O)[C@@H]2OC(=O)c2cc(O)c(O)c(O)c2-c2c1cc(O)c(O)c2O` (mixture of isomers) [Punicalagin, punicalagin]: the “mean inhibition between screen and rescreen” value in series [1] is on record as 71.7%. Moreover, the concentration for a half-maximal effect (EC50) in series [1] (setting [14]) is 559000 pM; in series [6] (read-out: EC50 (nM) N. nigricollis, 2-fold dilutions 10 µM to 5 pM, n = 4) it was 270 nM; in series [7], 167 nM. The “Percentage of Inhibition” value in [1] is 83.82. For the same molecule, the “% inhibition: D. russelii” value in [2] is “above 72%”. In addition, the “toxicity at high doses in rodents” value in series [8] is given as “non-toxic”.

With Tannic acid, in series [1], the “mean inhibition between screen and rescreen” value stood at 92.1%.

As for `O=c1c(O)c(-c2ccc(O)c(O)c2)oc2cc(O)cc(O)c12` [Quercetin (dihydrate), quercetin dihydrate], in series [1], the “Percent inhibition (PLA2) Original” value is given as > 70% and the “Percent inhibition (PLA2) Rescreen” value is recorded as “failed to inhibit”. The “% inhibition: D. russelii” value in [2] was 42%. Further, in series [9], the “inhibition of enzymatic PLA2s from C. durissus terrificus venom” value is given as “previously shown to inhibit”. The “% inhibition: N naja” value in series [3] is given as < 15%. For the same molecule, the “% inhibition: C. atrox” value in [4] is listed as < 15%. Besides, in series [5], the “% inhibition: B. arietans” value is < 15%. Besides, the “% inhibition: N. nigricollis” value in [6] is listed as < 15%. The “% inhibition: C. durissus terrificus” value in [7] is ~65%.

As for `CNC(=O)[C@@H](NC(=O)[C@H](CC(C)C)[C@H](O)C(=O)NO)C(C)(C)C` [Marimastat, marimastat], the “venom PLA2 activity in presence of compound” value in series [1] was 6–8 μmol/min/mL/µg venom.

`Cc1cc2c(C(C)C)c(O)c(O)c(C=O)c2c(O)c1-c1c(C)cc2c(C(C)C)c(O)c(O)c(C=O)c2c1O` [Gossypol]: the “mean inhibition between screen and rescreen” value in series [1] is 76.6%. Also, the EC50 in series [1] (setting [14]) was found to be 94100 pM; in series [7], 69.1 nM. Moreover, the “inhibition of secreted PLA2 activity” value in series [10] is listed as “reported inhibition of secreted PLA2 activity”. Further, the “efficacy and tolerability as male contraceptive” value in series [11] is “efficacious and well tolerated”. Also, the teratogenicity entry in series [12] is reported as “non-teratogenic”. For the same molecule, the “proliferation in non-small cell lung carcinoma cells” value in series [13] is “inhibited proliferation”. In addition, the “% inhibition: N naja” value in series [3] is given as 30%. Also, the “% inhibition: N. nigricollis” value in series [6] is listed as 64%.

The values are drawn from PMC10808766, “Optimizing drug discovery for snakebite envenoming via a high-throughput phospholipase A2 screening platform” (Frontiers in Pharmacology, 2024).
